These results are taken from the Kinase Knowledgebase extract (Sharma et al. 2016).

The structures appear in SMILES notation.

One assay deals with EGFR (human) (UniProt P00533). Nature of the assay: Enzyme Assay.
Assay [1] deals with EGFR (human), P00533 [L858R]. Nature of the assay: Enzyme Assay.
Assay [2] deals with EGFR (human), P00533 [L861Q]. As to the kind of experiment: Enzyme Assay.
For assay [3], the target named is EGFR (human), P00533 [L858R]. Nature of the assay: Cell-Based Assay. To be noted: ba/f3.

EGFR (human), P00533 [L858R], sequence (P00533 whole entry L858R, looked up): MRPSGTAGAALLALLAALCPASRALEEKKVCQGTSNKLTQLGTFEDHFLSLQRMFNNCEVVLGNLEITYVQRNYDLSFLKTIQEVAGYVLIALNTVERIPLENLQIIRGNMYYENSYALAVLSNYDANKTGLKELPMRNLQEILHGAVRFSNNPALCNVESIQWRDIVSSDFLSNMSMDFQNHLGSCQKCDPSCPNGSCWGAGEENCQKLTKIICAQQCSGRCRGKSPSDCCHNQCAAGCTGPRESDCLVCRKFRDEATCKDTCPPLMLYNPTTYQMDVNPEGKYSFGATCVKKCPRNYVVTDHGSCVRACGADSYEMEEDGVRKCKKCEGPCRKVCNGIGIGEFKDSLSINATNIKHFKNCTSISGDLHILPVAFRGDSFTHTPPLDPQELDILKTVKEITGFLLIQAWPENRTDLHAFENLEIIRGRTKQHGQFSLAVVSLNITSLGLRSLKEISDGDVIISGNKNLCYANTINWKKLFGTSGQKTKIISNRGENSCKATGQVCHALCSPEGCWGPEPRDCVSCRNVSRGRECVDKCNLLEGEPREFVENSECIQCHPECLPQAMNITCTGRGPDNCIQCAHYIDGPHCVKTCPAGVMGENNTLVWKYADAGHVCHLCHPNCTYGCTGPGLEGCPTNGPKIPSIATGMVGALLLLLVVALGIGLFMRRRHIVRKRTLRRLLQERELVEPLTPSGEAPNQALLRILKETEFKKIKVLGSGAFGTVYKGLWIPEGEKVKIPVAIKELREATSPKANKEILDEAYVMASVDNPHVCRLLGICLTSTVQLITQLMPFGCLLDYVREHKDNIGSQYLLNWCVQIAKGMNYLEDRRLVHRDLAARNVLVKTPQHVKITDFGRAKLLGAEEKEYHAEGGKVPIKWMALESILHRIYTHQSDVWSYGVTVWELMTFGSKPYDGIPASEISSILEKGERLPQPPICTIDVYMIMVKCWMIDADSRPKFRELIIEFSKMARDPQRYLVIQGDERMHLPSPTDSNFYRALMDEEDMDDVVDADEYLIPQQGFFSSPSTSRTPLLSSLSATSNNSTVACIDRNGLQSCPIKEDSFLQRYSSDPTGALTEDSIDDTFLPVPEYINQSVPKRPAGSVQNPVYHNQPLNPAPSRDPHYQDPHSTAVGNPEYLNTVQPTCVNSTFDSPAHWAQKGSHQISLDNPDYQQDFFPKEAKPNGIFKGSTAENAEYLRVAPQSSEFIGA
EGFR (human), sequence (P00533 whole entry, looked up): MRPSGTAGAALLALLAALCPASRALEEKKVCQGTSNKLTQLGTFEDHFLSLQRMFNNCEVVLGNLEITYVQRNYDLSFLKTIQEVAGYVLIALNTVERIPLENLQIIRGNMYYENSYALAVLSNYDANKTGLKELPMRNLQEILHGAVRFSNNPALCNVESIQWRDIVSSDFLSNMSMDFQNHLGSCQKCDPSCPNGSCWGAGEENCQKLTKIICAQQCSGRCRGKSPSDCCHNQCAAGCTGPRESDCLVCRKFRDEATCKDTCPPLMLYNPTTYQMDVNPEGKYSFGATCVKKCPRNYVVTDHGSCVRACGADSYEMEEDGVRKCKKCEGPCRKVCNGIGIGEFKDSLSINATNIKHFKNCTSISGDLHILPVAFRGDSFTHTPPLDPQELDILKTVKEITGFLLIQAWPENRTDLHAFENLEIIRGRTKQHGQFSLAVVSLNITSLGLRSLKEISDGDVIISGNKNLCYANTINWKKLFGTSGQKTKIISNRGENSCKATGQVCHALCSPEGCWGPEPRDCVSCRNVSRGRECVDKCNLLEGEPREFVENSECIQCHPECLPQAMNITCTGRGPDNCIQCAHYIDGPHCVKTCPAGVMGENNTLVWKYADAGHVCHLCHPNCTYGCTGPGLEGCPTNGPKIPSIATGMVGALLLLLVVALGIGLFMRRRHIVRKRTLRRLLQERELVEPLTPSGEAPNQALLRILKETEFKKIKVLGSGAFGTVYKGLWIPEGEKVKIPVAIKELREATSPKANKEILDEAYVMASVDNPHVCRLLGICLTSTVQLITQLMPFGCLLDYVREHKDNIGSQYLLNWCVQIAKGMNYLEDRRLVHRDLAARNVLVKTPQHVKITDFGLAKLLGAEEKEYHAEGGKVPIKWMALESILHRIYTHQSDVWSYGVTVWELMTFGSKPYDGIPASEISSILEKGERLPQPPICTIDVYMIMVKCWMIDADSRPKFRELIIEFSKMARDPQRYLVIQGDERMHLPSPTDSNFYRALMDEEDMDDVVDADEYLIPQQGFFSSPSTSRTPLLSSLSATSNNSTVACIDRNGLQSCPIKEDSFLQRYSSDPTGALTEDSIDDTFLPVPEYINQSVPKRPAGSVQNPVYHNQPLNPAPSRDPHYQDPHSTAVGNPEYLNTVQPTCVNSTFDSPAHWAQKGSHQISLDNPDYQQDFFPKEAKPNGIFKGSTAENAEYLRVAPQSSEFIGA
EGFR (human), P00533 [L861Q], sequence (P00533 whole entry L861Q, looked up): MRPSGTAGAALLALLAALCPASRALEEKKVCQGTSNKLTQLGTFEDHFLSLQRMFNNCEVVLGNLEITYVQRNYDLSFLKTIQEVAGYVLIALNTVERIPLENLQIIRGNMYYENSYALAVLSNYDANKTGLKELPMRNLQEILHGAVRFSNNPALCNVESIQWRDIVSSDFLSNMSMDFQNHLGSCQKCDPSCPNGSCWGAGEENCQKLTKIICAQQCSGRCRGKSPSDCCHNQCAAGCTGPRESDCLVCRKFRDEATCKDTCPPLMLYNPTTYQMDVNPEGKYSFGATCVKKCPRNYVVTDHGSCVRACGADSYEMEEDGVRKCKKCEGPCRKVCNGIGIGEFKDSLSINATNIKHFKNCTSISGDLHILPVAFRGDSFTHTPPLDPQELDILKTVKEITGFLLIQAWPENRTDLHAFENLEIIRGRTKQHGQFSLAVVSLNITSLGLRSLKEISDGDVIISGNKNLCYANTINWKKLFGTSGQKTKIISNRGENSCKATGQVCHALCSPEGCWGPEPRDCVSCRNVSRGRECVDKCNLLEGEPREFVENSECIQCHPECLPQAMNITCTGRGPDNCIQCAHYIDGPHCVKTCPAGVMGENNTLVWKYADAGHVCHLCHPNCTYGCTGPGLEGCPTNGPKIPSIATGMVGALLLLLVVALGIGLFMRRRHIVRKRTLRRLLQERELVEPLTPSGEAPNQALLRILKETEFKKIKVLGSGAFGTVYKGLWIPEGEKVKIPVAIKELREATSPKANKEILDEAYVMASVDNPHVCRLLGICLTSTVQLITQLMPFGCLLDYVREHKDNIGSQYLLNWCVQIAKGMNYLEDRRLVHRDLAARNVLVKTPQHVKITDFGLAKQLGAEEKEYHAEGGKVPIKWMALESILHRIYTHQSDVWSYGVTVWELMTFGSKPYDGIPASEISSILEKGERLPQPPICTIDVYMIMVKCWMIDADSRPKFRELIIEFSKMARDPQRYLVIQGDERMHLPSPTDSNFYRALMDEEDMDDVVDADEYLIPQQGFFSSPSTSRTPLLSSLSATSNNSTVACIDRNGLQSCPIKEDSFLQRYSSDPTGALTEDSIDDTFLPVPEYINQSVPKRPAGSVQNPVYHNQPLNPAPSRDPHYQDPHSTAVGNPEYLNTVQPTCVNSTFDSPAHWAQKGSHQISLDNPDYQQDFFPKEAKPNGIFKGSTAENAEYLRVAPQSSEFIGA

One may read the IC50 as the midpoint of a concentration-inhibition curve. A high value points to weaker potency. With `Cc1ccccc1-c1cc2c(N[C@H](C)c3ccccc3)ncnc2s1`, the concentration for half-maximal inhibition (IC50) against EGFR (human) came out at 153 nM.
Molecule `COc1cc(C=O)ccc1-c1cc2c(NCc3ccccc3)ncnc2[nH]1` had an IC50 against EGFR (human) of 2.1 nM.
As to `COc1ccccc1-c1cc2c(N[C@H](CO)c3ccccc3)ncnc2s1`, the IC50 came to 0.9 nM against EGFR (human), 1.3 nM in assay [1] and 1 nM in assay [2].
As to `Cc1cccc(-c2cc3c(N[C@H](C)c4ccccc4)ncnc3s2)c1`, the IC50 against EGFR (human) amounted to 77 nM.
Still for that read-out and setting: the figure for `OC[C@@H](Nc1ncnc2sc(-c3ccccc3O)cc12)c1ccccc1` is 3.4 nM.
Still for that read-out and setting: for `COc1cccc(OC)c1-c1cc2c(N[C@H](CO)c3ccccc3)ncnc2s1` the value was 0.79 nM.
In the case of `COc1cc(CO)ccc1-c1cc2c(NCc3ccccc3)ncnc2[nH]1`, the IC50 at EGFR (human) was 0.5 nM; in assay [1], 0.8 nM; in assay [2] it was 0.4 nM.
Regarding `COc1cc(C=O)ccc1-c1cc2c(Nc3ccccc3)ncnc2s1`, on EGFR (human), the IC50 is 20 nM.
The molecule `COc1c(CO)cccc1-c1cc2c(N[C@H](C)c3ccccc3)ncnc2s1` yielded an IC50 against EGFR (human) of 1.6 nM.
In the case of `COc1ccc(-c2cc3c(N[C@H](C)c4ccccc4)ncnc3s2)cc1`, the IC50 on EGFR (human) was found to be 54 nM.
Take `COc1cc(C=O)ccc1-c1cc2c(N[C@H](C)c3ccccc3)ncnc2[nH]1`: the IC50 against EGFR (human) came to 0.5 nM.
Regarding `COc1cc(CO)ccc1-c1cc2c(NCc3ccccc3)ncnc2s1`, the IC50 against EGFR (human) came to 4.8 nM.
Turning to `COc1cc(CO)ccc1-c1cc2c(N[C@H](CO)c3ccc(F)cc3)ncnc2[nH]1`, the IC50 at EGFR (human) is 0.3 nM; in assay [1], 0.6 nM; in assay [2] it was 0.5 nM; in assay [3], 83 nM.
On the same counts, the results for `COc1cc(CO)ccc1-c1cc2c(N[C@H](C)c3ccccc3)ncnc2[nH]1` are 0.2 nM, 0.4 nM, 0.2 nM and 99 nM.
Regarding `C[C@@H](Nc1ncnc2sc(-c3cccc(CO)c3)cc12)c1ccccc1`, the IC50 at EGFR (human) came to 9.1 nM.
The same measure, in the same setting: the figure for `COc1cc(C=O)ccc1-c1cc2c(N[C@H](CO)c3ccc(F)cc3)ncnc2[nH]1` is 0.6 nM; for `COc1ccc(-c2cc3c(N[C@H](C)c4ccccc4)ncnc3s2)c(OC)c1` it is 5 nM; for `COc1cc(C=O)ccc1-c1cc2c(N[C@H](CO)c3ccccc3)ncnc2[nH]1` it is 0.3 nM.
`Oc1ccccc1-c1cc2c(NCc3ccccc3)ncnc2s1` returned an IC50 on EGFR (human) of 29 nM.
For `COc1cc(CO)ccc1-c1cc2c(N[C@H](CO)c3ccccc3)ncnc2s1`, the IC50 (at EGFR (human); in assay [1]; in assay [2]) was 0.3 nM in each case.
In turn, `OC[C@@H](Nc1ncnc2oc(-c3ccc(O)cc3)cc12)c1ccccc1` gave an IC50 at EGFR (human) of 2 nM.
On EGFR (human), `C[C@@H](Nc1ncnc2sc(-c3ccccc3CO)cc12)c1ccccc1` showed an IC50 of 38 nM.
With `COc1cc(CO)ccc1-c1cc2c(Nc3ccccc3)ncnc2s1`, at EGFR (human), the IC50 was 3.1 nM.
As for `COc1cc(C=O)ccc1-c1cc2c(N[C@H](CO)c3ccccc3)ncnc2s1`, the IC50 turned out to be 0.8 nM against EGFR (human), 0.9 nM in assay [1] and 0.8 nM in assay [2].
`COc1cc(F)ccc1-c1cc2c(N[C@H](C)c3ccccc3)ncnc2s1`: the IC50 on EGFR (human) amounted to 6.3 nM.
On EGFR (human), `C[C@@H](Nc1ncnc2sc(-c3ccc(O)cc3)cc12)c1ccccc1` returned an IC50 of 84 nM.
As to `COc1cc(C=O)ccc1-c1cc2c(N[C@H](C)c3ccccc3)ncnc2s1`, the IC50 on EGFR (human) amounted to 3 nM; in assay [1], 4.3 nM; in assay [2], 3.9 nM.
On the same counts, the results for `COc1cc(CO)ccc1-c1cc2c(N[C@H](C)c3ccccc3)ncnc2s1` are 0.6 nM, 0.7 nM and 0.6 nM.
Consider `COc1ccc(CO)cc1-c1cc2c(N[C@H](C)c3ccccc3)ncnc2s1`, for which the IC50 against EGFR (human) was 4.7 nM.
Consider `COc1ccccc1-c1cc2c(N[C@H](C)c3ccccc3)ncnc2s1`, for which the IC50 against EGFR (human) was 6.7 nM; in assay [1], 7.71 nM; in assay [2], 9.06 nM.
Take `Cc1ccc(-c2cc3c(N[C@H](C)c4ccccc4)ncnc3s2)cc1`: the IC50 against EGFR (human) came out at 105 nM.
Still for that read-out and setting: the figure for `COc1cc(C=O)ccc1-c1cc2c(NCc3ccccc3)ncnc2s1` is 6.3 nM.
In turn, `COc1ccc(C=O)cc1-c1cc2c(N[C@H](C)c3ccccc3)ncnc2s1` gave an IC50 against EGFR (human) of 2.6 nM.
On to `COC[C@@H](Nc1ncnc2[nH]c(-c3ccccc3)cc12)c1ccccc1`, for which, on EGFR (human), the IC50 worked out at 1.8 nM.
For `COc1ccccc1-c1cc2c(N[C@H](CO)c3ccccc3)ncnc2[nH]1`, the IC50 amounted to 0.5 nM against EGFR (human), 0.1 nM in assay [1], 0.2 nM in assay [2] and 134 nM in assay [3].
For `C[C@@H](Nc1ncnc2sc(-c3ccccc3)cc12)c1ccccc1`, the IC50 against EGFR (human) stood at 59 nM.
With `C[C@@H](Nc1ncnc2sc(-c3cccc(O)c3)cc12)c1ccccc1`, the IC50 against EGFR (human) came to 45 nM.
On to `OCc1ccc(-c2cc3c(N[C@H](CO)c4ccccc4)ncnc3s2)cc1`, for which the IC50 amounted to 2.2 nM on EGFR (human), 2.3 nM in assay [1] and 1.6 nM in assay [2].
Consider `C[C@@H](Nc1ncnc2sc(-c3ccccc3O)cc12)c1ccccc1`, for which the IC50 against EGFR (human) stood at 35 nM.
With `OCc1ccc(-c2cc3c(N[C@H](CO)c4ccccc4)ncnc3[nH]2)cc1`, the IC50 against EGFR (human) stood at 0.4 nM; in assay [1] it was 0.4 nM; in assay [2], 0.2 nM; in assay [3], 172 nM.
In turn, `COc1cc(F)ccc1-c1cc2c(N[C@H](CO)c3ccccc3)ncnc2[nH]1` had an IC50 against EGFR (human) of 1 nM.
On to `COc1ccc(-c2cc3c(N[C@H](CO)c4ccccc4)ncnc3o2)cc1`, for which, on EGFR (human), the IC50 worked out at 2.7 nM.
Consider `OC[C@@H](Nc1ncnc2[nH]c(-c3ccccc3)cc12)c1ccccc1`, for which the IC50 against EGFR (human) came out at 0.7 nM; in assay [1], 1.3 nM; in assay [2] it was 1 nM; in assay [3], 127 nM.
Turning to `CC[C@@H](Nc1ncnc2sc(-c3ccccc3O)cc12)c1ccccc1`, the IC50 against EGFR (human) came out at 33 nM.
`COc1cccc(OC)c1-c1cc2c(N[C@H](C)c3ccccc3)ncnc2s1` had an IC50 against EGFR (human) of 1.1 nM.
At EGFR (human), `COc1cccc(-c2cc3c(N[C@H](C)c4ccccc4)ncnc3s2)c1` returned an IC50 of 37 nM.
Still for that read-out and setting: for `C[C@@H](Nc1ncnc2sc(-c3ccc(CO)cc3)cc12)c1ccccc1` the value was 6.6 nM.
